US20110178104A1, “Anti-Heparin Compounds” (POLYMEDIX INC., priority 2010, published 2011)
Values after ≈ are worked out from the molar mass of the structure shown. Values joined by “and” are separate entries in the source; they are usually repeats but may differ in a detail not shown here. Identical values can stand only once.

Assays:
in vitro = assay type: cell-based, human; details: human, pH 7.4
Method in brief: (§1)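 Test agent was serially diluted two-fold over 0.48–1000 µg/ml and incubated for 1 h at 37 °C with shaking, using erythrocytes from pooled human blood diluted in Tris-buffered saline pH 7.4 (0.22% stock). Hemolysis was measured as supernatant absorbance at 405 nm. A four-parameter logistic equation gave EC50, and melittin served as the positive control.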

[1] = tested on: isolated human erythrocytes; assay: cells; assay type: cell-based; details: Homo sapiens, Erythrocyte, 1 h, human RBC, 1 hour at 37° C.; read-out: Hemolysis EC50
Method in brief: as §1

fondaparinux [2] = assay: FXa amidolytic assay (Example 10), fondaparinux; details: for EC50: read-out: Fondap FXa EC50, fondaparinux 0.02 μg/mL, human antithrombin, bovine Factor Xa
UFH = assay: FXa amidolytic assay (Example 10), UFH; details: read-out: Heparin FXa uM EC50; UFH 0.03 units/mL; human antithrombin, bovine Factor Xa
Unfractionated heparin = assay: aPTT clotting assay, UFH 0.4 U/mL in plasma (Example 10); assay type: biochemical; details: unfractionated heparin 0.4 U/mL in plasma; aPTT clotting
Procedure: aPTT clotting Assay: Unfractionated heparin was mixed with plasma at a final concentration of 0.4 U/mL (or concentration which increases aPTT time to between 120 and 300 seconds). […] The ACL Elite Hemostasis analyzer (Beckman Coulter™) was used to add aPTT reagent (HemosIL SynthASil) to supplemented plasma. Clotting was initiated by addition of CaCl2 and time to clot was recorded.

tinzaparin = assay: FXa amidolytic assay (Example 10), tinzaparin; details: read-out: Tinzap FXa EC50; tinzaparin 0.1 ug/ml; human antithrombin, bovine Factor Xa
enoxaparin = assay: FXa amidolytic assay (Example 10), enoxaparin; details: read-out: Enox FXa EC50; enoxaparin 0.1 ug/ml; human antithrombin, bovine Factor Xa
[3] = Cytotoxicity colorimetric assay, HepG2; assay type: cell-based, human; details: human, HepG2 cells, one hour in serum-free media
Method in brief: (§2)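 HepG2 cells (3×10^4/well, MEM + 10% FBS) and NIH/3T3 cells (2×10^4/well, DMEM + 10% BCS) were exposed to compound for 1 h in serum-free medium. Viability read by tetrazolium-to-formazan bioreduction after return to serum medium; EC50 from a four-parameter logistic fit.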

fondaparinux [4] = assay: In vivo neutralization of fondaparinux in the rat
Procedure: Compounds were selected to test fondaparinux neutralization in vivo. Rats were pre-treated with fondaparinux administered by IV injection at 0.5 mg/kg. The rats were then treated with a single IV injection of saline, protamine or the PMX compound. Blood was collected via the orbital sinus from three rats per group at the following time points: pre-dose, 1, 3, 10, 30 and 60 min. Plasma samples were prepared for analysis of anti-factor Xa activity using an AMEX Destiny Plus Coagulation Analyzer.

[5] = Cytotoxicity colorimetric assay, NIH/3T3; assay type: cell-based, mouse; details: mouse, NIH/3T3 cells, one hour in serum-free media
Method in brief: as §2

blood pressure = assay: Hemodynamic responses in the anesthetized rat; assay type: in vivo; details: anesthetized rat, 8 or 16 mg/kg 10 minute IV infusion after heparin 50 U/kg
Excerpt: As a key safety issue for cationic compounds is reduction in blood pressure shortly after administration. To address this hemodynamic issue, a medicinal chemistry strategy with literature precedence of introducing carboxylic acid functionality was applied to the salicylamide series of compounds. […] Surgically prepared animals were purchased from Charles River Laboratories, Raleigh, N.C. Animals were anesthetized on the day of experiment with isoflurane (1.8-4%). Blood pressure and heart rate data were collected on a Grass Polygraph recorder. The test articles, vehicle or protamine dosing preparations were administered once to each rat by a 10 minute intravenous infusion three minutes following a single intravenous injection of heparin (50 U/kg). Each animal received a dose volume of 2.0 mL/kg. Blood pressure was recorded prior to treatment for approximately 1 minute and immediately following heparin, immediately following vehicle, test articles or protamine and at 5, 15, 30, and 60 minutes following dosing. The doses of test agent were either 8 mg/kg or 16 mg/kg. The differences in hemodynamic effect at 16 mg/kg were especially profound (FIG. 5).

| EC50 (fondaparinux [2]) | EC50 (UFH) [µM] | EC50 (Unfractionated heparin) | EC50 (tinzaparin) | EC50 (enoxaparin) | Compound | hemolysis at 1 h (in vitro) [%] | EC50 [1] [µg/mL] | EC50 at 1 h [3] [µg/mL] | reduction of Factor Xa (anti-factor Xa) levels after fondaparinux (fondaparinux [4]; fondaparinux 0.5 mg/kg IV, test agent 2 and 5 mg/kg IV) | in vivo efficacy versus fondaparinux (summary) (fondaparinux [4]; in vivo) | EC50 at 1 h [5] [µg/mL] | Potent LMWH-antagonists with superior anti-fondaparinux activity (summary) (fondaparinux [2]) | hemodynamic response profile (blood pressure) |
| --- | --- | --- | --- | --- | --- | --- | --- | --- | --- | --- | --- | --- | --- |
| 120 nM | 0.295 | > 10000 nM | 169 nM | 152 nM | COc1ccc(NC(=O)[C@H](CCCNC(=N)N)NC(=O)c2cc(NC(=O)[C@H](CCCNC(=N)N)NC(=O)c3cc(NC(=O)[C@H](CCCNC(=N)N)NC(=O)c4cc(NC(C)=O)ccc4OC)ccc3OC)ccc2OCC(=O)O)cc1C(=O)N[C@@H](Cc1c[nH]c2ccccc12)C(N)=O [Compound 312] | 25 | 1000 (≈ 738 µM) |  |  |  |  |  |  |
| 91 nM and 63 nM |  | 1430 nM and 1220 nM | 133 nM and 84 nM | 79 nM and 91 nM | COc1cc(OC)c(C(=O)N[C@H]2CC[C@H](NC(=O)c3ccc(OCCCCCNC(=N)N)cc3OCCCCCNC(=N)N)CC2)cc1C(=O)N[C@H]1CC[C@H](NC(=O)c2ccc(OCCCCCNC(=N)N)cc2OCCCCCNC(=N)N)CC1 [Compound 336] |  | > 1000 | 505 (≈ 421 µM) | significant reductions in anti-Factor Xa activity | in vivo efficacy versus fondaparinux | 390 (≈ 325 µM) | superior anti-fondaparinux activity |  |
| 161 nM |  | > 10000 nM | 184 nM | 155 nM | COc1ccc(NC(=O)[C@@H](CCCNC(=N)N)NC(=O)c2cc(NC(=O)[C@@H](CCCNC(=N)N)NC(=O)c3cc(NC(=O)[C@@H](CCCNC(=N)N)NC(=O)c4cc(NC(=O)[C@H](N)Cc5c[nH]c6ccccc56)ccc4OC)ccc3OC)ccc2OC)cc1C(=O)N[C@H](Cc1c[nH]c2ccccc12)C(=O)O [Compound 331] | 50 | ~100 (≈ 68.7 µM) |  |  |  |  |  |  |
| 390 nM |  | 1560 nM | 138 nM | 144 nM | COc1ccc(NC(=O)[C@H](CCCNC(=N)N)NC(=O)c2cc(NC(=O)[C@H](CCCNC(=N)N)NC(=O)c3cc(NC(=O)[C@H](CCCNC(=N)N)NC(=O)c4cc(NC(=O)[C@@H](N)CCCNC(=N)N)ccc4OC)ccc3OC)ccc2OC)cc1C(=O)NCC(=O)O [Compound 284] | 50 | 1000 (≈ 771 µM) |  |  |  |  |  |  |
| 218 nM |  | > 10000 nM | 182 nM | 169 nM | COc1ccc(NC(=O)[C@H](CCCCN)NC(=O)c2cc(NC(=O)[C@H](CCCCN)NC(=O)c3cc(NC(=O)[C@H](CCCCN)NC(=O)c4cc(NC(=O)[C@@H](N)Cc5c[nH]c6ccccc56)ccc4OC)ccc3OC)ccc2OC)cc1C(=O)N[C@@H](Cc1c[nH]c2ccccc12)C(=O)O [Compound 330] | 75 | 5.4 (≈ 3.94 µM) |  |  |  |  |  |  |
| 5980 nM and 6260 nM |  | 1530 nM and 2150 nM | 232 nM and 214 nM | 344 nM and 294 nM | COc1ccc(NC(=O)[C@H](CCCCN)NC(=O)c2cc(NC(=O)[C@H](CCCCN)NC(=O)c3cc(NC(=O)[C@H](CCCCN)NC(=O)c4cc(NC(=O)[C@@H](N)CCCCN)ccc4OC)ccc3OC)ccc2OC)cc1C(=O)NCCC(=O)O [Compound 261] |  |  | > 1000 |  |  | > 1000 |  | did not show an improved hemodynamic effect profile |
| 371 nM |  | 7910 nM | 203 nM | 202 nM | COc1ccc(NC(=O)[C@@H](CCCNC(=N)N)NC(=O)c2cc(NC(=O)[C@@H](CCCNC(=N)N)NC(=O)c3cc(NC(=O)[C@@H](CCCNC(=N)N)NC(=O)c4cc(NC(=O)[C@H](N)Cc5c[nH]c6ccccc56)ccc4OC)ccc3OC)ccc2OCC(=O)O)cc1C(N)=O [Compound 329] | 50 | 18 (≈ 13.7 µM) |  |  |  |  |  |  |
| 417 nM |  | 2110 nM | 158 nM | 195 nM | COc1ccc(NC(=O)[C@@H](CCCNC(=N)N)NC(=O)c2cc(NC(=O)[C@@H](CCCNC(=N)N)NC(=O)c3cc(NC(=O)[C@@H](CCCNC(=N)N)NC(=O)c4cc(NC(=O)[C@H](N)CCC(=O)O)ccc4OC)ccc3OC)ccc2OC)cc1C(N)=O [Compound 322] | 50 | 1000 (≈ 826 µM) |  |  |  |  |  |  |
